IC50 data for 2 compounds are collected here from ChEMBL document CHEMBL1153973, “Regioisomerism-dependent TLR7 agonism and antagonism in an imidazoquinoline” (Bioorg Med Chem Lett, 2009).

pIC50: −log10 of the molar value.

Assay [1] concerns the target T1, Toll-like receptor 7 (Homo sapiens, UniProt Q9NYK1).
T1 sequence (Q9NYK1 whole entry): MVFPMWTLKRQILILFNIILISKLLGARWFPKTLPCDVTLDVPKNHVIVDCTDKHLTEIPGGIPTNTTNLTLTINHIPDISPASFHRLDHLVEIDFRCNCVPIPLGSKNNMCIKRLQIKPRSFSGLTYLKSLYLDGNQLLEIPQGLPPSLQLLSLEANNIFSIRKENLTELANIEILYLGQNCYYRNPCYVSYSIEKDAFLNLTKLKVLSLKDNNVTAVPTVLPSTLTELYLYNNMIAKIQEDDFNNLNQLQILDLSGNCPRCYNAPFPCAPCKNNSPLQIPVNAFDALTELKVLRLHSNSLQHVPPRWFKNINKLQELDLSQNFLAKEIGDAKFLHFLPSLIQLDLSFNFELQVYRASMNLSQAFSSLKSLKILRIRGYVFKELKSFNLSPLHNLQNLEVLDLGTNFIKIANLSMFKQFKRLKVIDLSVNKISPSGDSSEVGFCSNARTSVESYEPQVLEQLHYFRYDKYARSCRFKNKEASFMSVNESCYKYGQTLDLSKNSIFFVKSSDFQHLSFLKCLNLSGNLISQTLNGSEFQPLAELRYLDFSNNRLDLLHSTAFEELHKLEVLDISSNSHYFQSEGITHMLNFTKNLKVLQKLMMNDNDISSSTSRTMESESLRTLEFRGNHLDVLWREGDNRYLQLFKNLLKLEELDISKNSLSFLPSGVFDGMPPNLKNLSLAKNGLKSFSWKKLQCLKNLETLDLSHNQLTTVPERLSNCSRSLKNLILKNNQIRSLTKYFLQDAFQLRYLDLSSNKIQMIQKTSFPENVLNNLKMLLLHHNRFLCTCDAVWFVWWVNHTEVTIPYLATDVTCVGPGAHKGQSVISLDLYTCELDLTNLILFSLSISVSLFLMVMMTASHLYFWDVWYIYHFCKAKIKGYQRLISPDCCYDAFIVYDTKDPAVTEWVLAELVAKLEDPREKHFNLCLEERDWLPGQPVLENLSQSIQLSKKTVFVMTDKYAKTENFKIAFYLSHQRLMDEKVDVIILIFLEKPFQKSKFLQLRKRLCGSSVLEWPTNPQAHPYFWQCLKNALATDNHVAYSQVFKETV

Assay [2] concerns the target T1, Toll-like receptor 7. The assay can be described thus: Agonist activity at TLR7 expressed in HEK293 cells assessed as increase in NF-kappaB activation at 25 ug/mL by SEAP assay. Type of assay: functional, cell-based.

Turning to `CCNCc1nc2c3ccccc3nc(N)c2n1CC(C)(C)O.O=C(O)C(F)(F)F.O=C(O)C(F)(F)F`, at Toll-like receptor 7 [1], the negative-log IC50 (pIC50) was 4.60. The IC50 entry at Toll-like receptor 7 [2] is reported as “Not Active”.
On Toll-like receptor 7 [1], `CCNCc1nc2c3ccccc3ncc2n1CC(C)(C)O` gave a negative logarithm of the IC50 (pIC50) of 5.12.
